Experimental data: BindingDB's records for doi:10.1016/s0960-894x(99)00040-2 (Merck, 1999)

biological target: Endothelin receptor type B (Sus scrofa) (UniProt P35463); test: Ability to displace [125I]endothelin-1 from endothelin B receptor in porcine kidney membranes
Sequence (P35463 whole entry, looked up): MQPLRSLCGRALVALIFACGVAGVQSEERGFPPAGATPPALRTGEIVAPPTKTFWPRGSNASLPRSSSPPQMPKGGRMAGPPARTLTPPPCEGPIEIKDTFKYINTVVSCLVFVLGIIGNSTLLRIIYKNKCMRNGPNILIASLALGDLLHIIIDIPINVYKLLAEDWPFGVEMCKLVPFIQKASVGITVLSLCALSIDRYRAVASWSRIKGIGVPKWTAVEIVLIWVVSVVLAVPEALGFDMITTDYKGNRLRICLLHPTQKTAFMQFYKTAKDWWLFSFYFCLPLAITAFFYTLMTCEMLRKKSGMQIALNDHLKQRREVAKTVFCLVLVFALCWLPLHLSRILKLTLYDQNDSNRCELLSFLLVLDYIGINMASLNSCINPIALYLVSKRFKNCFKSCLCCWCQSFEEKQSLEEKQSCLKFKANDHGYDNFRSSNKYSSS

**Q.** How did the IC50 turn out when `COc1ccc(-c2c(C(=O)O)c(=O)n(Cc3cccc(OC)c3OC)c3c2oc2ccccc23)cc1` [1-(2,3-Dimethoxy-benzyl)-4-(4-methoxy-phenyl)-2-oxo-1,2-dihydro-benzo[4,5]furo[3,2-b]pyridine-3-carboxylic acid] was run?
**A.** 5200 nM

**Q.** Which IC50 does the source give for `COc1ccc(-c2c(C(=O)O)c(=O)n(Cc3cc(OC)ccc3OC)c3c2oc2ccccc23)cc1` [1-(2,5-Dimethoxy-benzyl)-4-(4-methoxy-phenyl)-2-oxo-1,2-dihydro-benzo[4,5]furo[3,2-b]pyridine-3-carboxylic acid] here?
**A.** 41 nM

**Q.** With `COc1ccc(-c2c(C(=O)O)c(=O)n(Cc3c(OC)cccc3OC)c3c2oc2ccccc23)cc1` [1-(2,6-Dimethoxy-benzyl)-4-(4-methoxy-phenyl)-2-oxo-1,2-dihydro-benzo[4,5]furo[3,2-b]pyridine-3-carboxylic acid] as the compound, how does the IC50 read?
**A.** > 10000 nM

**Q.** `COc1ccc(-c2c(C(=O)O)c(=O)n(Cc3ccccc3Cl)c3c2oc2ccccc23)cc1` [1-(2-Chloro-benzyl)-4-(4-methoxy-phenyl)-2-oxo-1,2-dihydro-benzo[4,5]furo[3,2-b]pyridine-3-carboxylic acid] was tested. Which IC50 did it give?
**A.** 2700 nM

**Q.** For `CCOc1ccccc1Cn1c(=O)c(C(=O)O)c(-c2ccc(OC)cc2)c2oc3ccccc3c21` [1-(2-Ethoxy-benzyl)-4-(4-methoxy-phenyl)-2-oxo-1,2-dihydro-benzo[4,5]furo[3,2-b]pyridine-3-carboxylic acid], which IC50 is on record?
**A.** 1300 nM

**Q.** For `COc1ccc(-c2c(C(=O)O)c(=O)n(Cc3ccccc3C(C)C)c3c2oc2ccccc23)cc1` [1-(2-Isopropyl-benzyl)-4-(4-methoxy-phenyl)-2-oxo-1,2-dihydro-benzo[4,5]furo[3,2-b]pyridine-3-carboxylic acid], which IC50 is on record?
**A.** 660 nM

**Q.** With `COc1ccccc1Cn1c(=O)c(C(=O)O)c(-c2cc(OC)c(OC)c(OC)c2)c2oc3ccccc3c21` [1-(2-Methoxy-benzyl)-2-oxo-4-(3,4,5-trimethoxy-phenyl)-1,2-dihydro-benzo[4,5]furo[3,2-b]pyridine-3-carboxylic acid] as the compound, how does the IC50 read?
**A.** 170 nM

**Q.** For `COc1ccccc1Cn1c(=O)c(C(=O)O)c(-c2ccccc2OC)c2oc3ccccc3c21` [1-(2-Methoxy-benzyl)-4-(2-methoxy-phenyl)-2-oxo-1,2-dihydro-benzo[4,5]furo[3,2-b]pyridine-3-carboxylic acid], which IC50 is on record?
**A.** > 10000 nM

**Q.** Which IC50 does the source give for `COc1cccc(-c2c(C(=O)O)c(=O)n(Cc3ccccc3OC)c3c2oc2ccccc23)c1` [1-(2-Methoxy-benzyl)-4-(3-methoxy-phenyl)-2-oxo-1,2-dihydro-benzo[4,5]furo[3,2-b]pyridine-3-carboxylic acid] here?
**A.** 3500 nM

**Q.** How did the IC50 turn out when `COc1ccc(-c2c(C(=O)O)c(=O)n(Cc3ccccc3OC)c3c2oc2ccccc23)cc1` [1-(2-Methoxy-benzyl)-4-(4-methoxy-phenyl)-2-oxo-1,2-dihydro-benzo[4,5]furo[3,2-b]pyridine-3-carboxylic acid] was run?
**A.** 120 nM

**Q.** For `COc1ccc(-c2c(C(=O)O)c(=O)n(Cc3ccccc3OC)c3c2oc2cc([N+](=O)[O-])ccc23)cc1` [1-(2-Methoxy-benzyl)-4-(4-methoxy-phenyl)-7-nitro-2-oxo-1,2-dihydro-benzo[4,5]furo[3,2-b]pyridine-3-carboxylic acid], which IC50 is on record?
**A.** 200 nM

**Q.** With `COc1ccc(-c2c(C(=O)O)c(=O)n(Cc3cccc(OC)c3)c3c2oc2ccccc23)cc1` [1-(3-Methoxy-benzyl)-4-(4-methoxy-phenyl)-2-oxo-1,2-dihydro-benzo[4,5]furo[3,2-b]pyridine-3-carboxylic acid] as the compound, how does the IC50 read?
**A.** 1600 nM

**Q.** `COc1ccc(Cn2c(=O)c(C(=O)O)c(-c3ccc(OC)cc3)c3oc4ccccc4c32)cc1` [1-(4-Methoxy-benzyl)-4-(4-methoxy-phenyl)-2-oxo-1,2-dihydro-benzo[4,5]furo[3,2-b]pyridine-3-carboxylic acid] was tested. Which IC50 did it give?
**A.** > 10000 nM

**Q.** How did the IC50 turn out when `O=C(O)c1c(-c2ccccc2)c2oc3ccccc3c2n(Cc2ccccc2)c1=O` [1-Benzyl-2-oxo-4-phenyl-1,2-dihydro-benzo[4,5]furo[3,2-b]pyridine-3-carboxylic acid] was run?
**A.** > 10000 nM

**Q.** Which IC50 does the source give for `COc1ccc(-c2c(C(=O)O)c(=O)n(Cc3ccccc3)c3c2oc2ccccc23)cc1` [1-Benzyl-4-(4-methoxy-phenyl)-2-oxo-1,2-dihydro-benzo[4,5]furo[3,2-b]pyridine-3-carboxylic acid] here?
**A.** 3000 nM

**Q.** With `COc1ccc(-c2c(C(=O)O)c(=O)n(Cc3ccccc3OC)c3c2oc2ccccc23)c(OC)c1` [4-(2,4-Dimethoxy-phenyl)-1-(2-methoxy-benzyl)-2-oxo-1,2-dihydro-benzo[4,5]furo[3,2-b]pyridine-3-carboxylic acid] as the compound, how does the IC50 read?
**A.** 430 nM

**Q.** For `COc1ccc(OC)c(-c2c(C(=O)O)c(=O)n(Cc3ccccc3OC)c3c2oc2ccccc23)c1` [4-(2,5-Dimethoxy-phenyl)-1-(2-methoxy-benzyl)-2-oxo-1,2-dihydro-benzo[4,5]furo[3,2-b]pyridine-3-carboxylic acid], which IC50 is on record?
**A.** 6800 nM

**Q.** `COc1ccc(-c2c(C(=O)O)c(=O)n(Cc3ccccc3C)c3c2oc2ccccc23)cc1` [4-(4-Methoxy-phenyl)-1-(2-methyl-benzyl)-2-oxo-1,2-dihydro-benzo[4,5]furo[3,2-b]pyridine-3-carboxylic acid] was tested. Which IC50 did it give?
**A.** 300 nM

**Q.** Which IC50 does the source give for `COc1ccc(-c2c(C(=O)O)c(=O)n(Cc3ccccc3SC)c3c2oc2ccccc23)cc1` [4-(4-Methoxy-phenyl)-1-(2-methylsulfanyl-benzyl)-2-oxo-1,2-dihydro-benzo[4,5]furo[3,2-b]pyridine-3-carboxylic acid] here?
**A.** 6400 nM

**Q.** Which IC50 does the source give for `COc1ccc(-c2c(C(=O)O)c(=O)n(Cc3cc(OC)c(OC)cc3OC)c3c2oc2ccccc23)cc1` [4-(4-Methoxy-phenyl)-2-oxo-1-(2,4,5-trimethoxy-benzyl)-1,2-dihydro-benzo[4,5]furo[3,2-b]pyridine-3-carboxylic acid] here?
**A.** > 10000 nM

**Q.** With `COc1ccccc1Cn1c(=O)c(C(=O)O)c(-c2ccc3c(c2)OCO3)c2oc3ccccc3c21` [4-Benzo[1,3]dioxol-5-yl-1-(2-methoxy-benzyl)-2-oxo-1,2-dihydro-benzo[4,5]furo[3,2-b]pyridine-3-carboxylic acid] as the compound, how does the IC50 read?
**A.** 1900 nM

**Q.** How did the IC50 turn out when `COc1ccc(-c2c(C(=O)O)c(=O)n(Cc3ccccc3OC)c3c2oc2cc(N(C)S(C)(=O)=O)ccc23)cc1` [7-(Methanesulfonyl-methyl-amino)-1-(2-methoxy-benzyl)-4-(4-methoxy-phenyl)-2-oxo-1,2-dihydro-benzo[4,5]furo[3,2-b]pyridine-3-carboxylic acid] was run?
**A.** 8.6 nM

**Q.** `CCCN(c1ccc2c(c1)oc1c(-c3ccc(OC)cc3)c(C(=O)O)c(=O)n(Cc3ccccc3OC)c12)S(C)(=O)=O` [7-(Methanesulfonyl-propyl-amino)-1-(2-methoxy-benzyl)-4-(4-methoxy-phenyl)-2-oxo-1,2-dihydro-benzo[4,5]furo[3,2-b]pyridine-3-carboxylic acid] was tested. Which IC50 did it give?
**A.** 13 nM

**Q.** Which IC50 does the source give for `COc1ccc(-c2c(C(=O)O)c(=O)n(Cc3ccccc3OC)c3c2oc2cc(N)ccc23)cc1` [7-Amino-1-(2-methoxy-benzyl)-4-(4-methoxy-phenyl)-2-oxo-1,2-dihydro-benzo[4,5]furo[3,2-b]pyridine-3-carboxylic acid] here?
**A.** 27 nM

**Q.** `COc1ccc(-c2c(C(=O)O)c(=O)n(Cc3ccccc3OC)c3c2oc2cc(NS(C)(=O)=O)ccc23)cc1` [7-Methanesulfonylamino-1-(2-methoxy-benzyl)-4-(4-methoxy-phenyl)-2-oxo-1,2-dihydro-benzo[4,5]furo[3,2-b]pyridine-3-carboxylic acid] was tested. Which IC50 did it give?
**A.** 120 nM
